Results reported in US4001272A, “Herbicidal 2-fluoro-4-halo-phenyl-4,5,6,7-tetrahydro-2H-isoindole-1,3-diones” (E. I. Du Pont de Nemours and Company, priority 1974, dated 1977).

What was measured:
Type in all cases: in vivo
[1] = system: lambsquarters (Chenopodium album); assay: Test B: overall spray in carrot field after weed emergence, percent control of lambsquarters; conditions: six weeks after treatment, 0.1% Tween 20
Text: (§1) Test B involved a field sown to carrots and in which the following weed species emerged naturally: crabgrass (Digitaria sanquinalis), foxtails (Setaria spp.), barnyardgrass (Echinochloa crusgalli), pigweed (Amaranthus spp.), ragweed (Ambrosia artemisiifolia), velvetleaf (Abutilon theophrasti), smartweed (Polygonum spp.) and lambsquarters (Chenopodium album). Sixteen days after sowing, when all species of weeds had emerged, the plants were sprayed overall with a 50% wettable powder formulation of 2-(4-chloro-2-fluorophenyl)4,5,6,7-tetrahydro-2H-isoindole-1,3dione (Treatment I) in the form of an aqueous suspension, at rates of 0.5, 1.0, 2.0 and 4.0 kg/ha, and with 2-(4-chlorophenyl)-4,5,6,7-tetrahydro-2H-isoindole-1,3-dione (Treatment II) in the same form and at the same rates. The spray volume was 425 l/ha. The surfactant Tween 20* was added to all treatments in a concentration of 0.1% by weight. Six weeks after treatment, visual observations were made of percent weed control obtained and, for carrots, crop response.
(§2) *Tween 20 -- A trademark of ICI of America which is the reaction product of sorbitan monolaurate with an average of 20 moles of ethylene oxide.

[2] = system: flower-of-an-hour (Hibiscus trionum); assay: Test A: field test, percent weed control of flower-of-an-hour; conditions: seven weeks after treatment
Text: (§3) In test A, soybeans, peanuts, lima beans, green beans and squash were planted in a field infested with the following weed seeds: crabgrass (Digitaria sanquinalis), foxtails (Setaria spp.), barnyardgrass (Echinochloa crusgalli), pigweed (Amaranthus spp.), ragweed (Ambrosia artemisiifolia), velvetleaf (Abutilon theophrasti), purslane (Portulaca oleracea) and flower-of-an-hour (Hibiscus trionum). A 50% wettable powder formulation of 2-(4-chloro-2-fluorophenyl)-4,5,6,7-tetrahydro-2H-isoindole-1,3-dione was applied in the form of an aqueous suspension at rates of 0.125, 0.25, 0.5 and 1.0 kg/ha, each treatment replicated twice. The plots were rated for percent weed control and crop response seven weeks after treatment. Crop response was expressed on a scale of 0 = no injury to 10 = complete kill.

[3] = system: flower-of-an-hour (Hibiscus trionum); assay: Test C: preemergence weed control in rice, flower-of-an-hour; conditions: 29 days after treatment
Text: as §3
(§4) Test C concerned preemergence weed control in rice. The field selected contained seeds of the following weed species: crabgrass (Digitaria sanquinalis), foxtail (Setaria spp.), barnyardgrass (Echinochloa crusgalli), pigweed (Amaranthus spp.), ragweed (Ambrosia artemisiifolia), velvetleaf (Abutilon theophrasti), purslane (Portulaca oleracea) and flower-of-an-hour (Hibiscus trionum). Two varieties of rice, CSM-3 and Nato, were planted at depths of both 1 and 2 cm. In addition, rice seedlings of both varieties were transplanted into the field to be treated. Immediately thereafter, the plot was treated with an aqueous suspension of 2-(4-chloro-2-fluorophenyl)-4,5,6,7-tetrahydro-2H-isoindole-1,3-dione (Treatment I) at rates of 0.125 and 0.25 kg/ha, and an aqueous suspension of 2-(4-chlorophenyl)-4,5,6,7-tetrahydro-2H-isoindole-1,3dione (Treatment II) at rates of 0.25, 0.50, 1.00 and 2.00 kg/ha. The test chemicals had been formulated as 50% wettable powders. Overall spray volume was 540 l/ha. Ratings of percent weed control obtained and crop response were made 29 days after treatment, as described for test A. The ratings are summarized in the following Table III.

[4] = system: purslane (Portulaca oleracea); assay: Test C: preemergence weed control in rice, purslane; conditions: 29 days after treatment
Text: as §3, §4

[5] = system: crabgrass (Digitaria sanquinalis); assay: Test B: overall spray in carrot field after weed emergence, percent control of crabgrass; conditions: six weeks after treatment, 0.1% Tween 20
Text: as §1, §2

[6] = system: rice, variety Nato; assay: Test C: crop response of rice Nato; conditions: 29 days, 0 = no injury to 10 = complete kill; for Crop Response, Rice Nato, 1 cm: planting depth 1 cm; for Crop Response, Rice Nato, 2 cm: planting depth 2 cm; for Crop Response, Rice Nato, T: transplanted
Text: as §3, with “A 50% wettable powder formulation of 2-(4-chloro-2-fluorophenyl)-4,5,6,7-tetrahydro-2H-isoindole-1,3-dione was applied in the form of an aqueous suspension at rates of 0.125, 0.25, 0.5 and 1.0 kg/ha, each treatment replicated twice.” left out
Test C concerned preemergence weed control in rice. The field selected contained seeds of the following weed species: crabgrass (Digitaria sanquinalis), foxtail (Setaria spp.), barnyardgrass (Echinochloa crusgalli), pigweed (Amaranthus spp.), ragweed (Ambrosia artemisiifolia), velvetleaf (Abutilon theophrasti), purslane (Portulaca oleracea) and flower-of-an-hour (Hibiscus trionum). Two varieties of rice, CSM-3 and Nato, were planted at depths of both 1 and 2 cm. In addition, rice seedlings of both varieties were transplanted into the field to be treated. […] The test chemicals had been formulated as 50% wettable powders. Overall spray volume was 540 l/ha.

[7] = system: pigweed (Amaranthus spp.); assay: Test A: field test, percent weed control of pigweed; conditions: seven weeks after treatment
Text: as §3

[8] = system: foxtails (Setaria spp.); assay: Test B: overall spray in carrot field after weed emergence, percent control of foxtails; conditions: six weeks after treatment, 0.1% Tween 20
Text: as §1, §2

[9] = system: ragweed (Ambrosia artemisiifolia); assay: Test A: field test, percent weed control of ragweed; conditions: seven weeks after treatment
Text: as §3

[10] = system: soybeans; assay: Test A: field test, crop response of soybeans; conditions: seven weeks, 0 = no injury to 10 = complete kill
Text: as §3

[11] = system: peanuts; assay: Test A: field test, crop response of peanuts; conditions: seven weeks, 0 = no injury to 10 = complete kill
Text: as §3

[12] = system: naturally emerging weeds; assay: Test B: control of naturally emerging weeds, comparison of treatments
Text: as §1, §2

For `O=C1C2=C(CCCC2)C(=O)N1c1ccc(Cl)cc1F` [Treatment I, 2-(4-chloro-2-fluorophenyl)-4,5,6,7-tetrahydro-2H-isoindole-1,3-dione], the “% Control, Lambsquarters” value ([1]; 0.5 kg/ha) was 100%, the “% Control, Lambsquarters” value ([1]; 1.0 kg/ha) was 100% and the “% Control, Lambsquarters” value ([1]; 2.0 kg/ha) was 100%. The “% Control, Lambsquarters” value ([1]; 4.0 kg/ha) was 100%, the “% Control, Flower-of-an-Hour” value ([2]; 0.125 kg/ha) was 87% and the “% Control, Flower-of-an-Hour” value ([2]; 0.25 kg/ha) was 99%. The “% Control, Flower-of-an-Hour” value ([2]; 0.50 kg/ha) was 99%, the “% Control, Flower-of-an-Hour” value ([2]; 1.00 kg/ha) was 100% and the “% Control, Flower-of-an-Hour” value ([3]; 0.125 kg/ha) was 100%. The “% Control, Flower-of-an-Hour” value ([3]; 0.25 kg/ha) was 100%, the “% Control, Purslane” value ([4]; 0.125 kg/ha) was 100% and the “% Control, Purslane” value ([4]; 0.25 kg/ha) was 100%. The “% Control, Crabgrass” value ([5]; 0.5 kg/ha) was 60%, the “% Control, Crabgrass” value ([5]; 1.0 kg/ha) was 85% and the “% Control, Crabgrass” value ([5]; 2.0 kg/ha) was 90%. For the same compound, the “% Control, Crabgrass” value ([5]; 4.0 kg/ha) was 100%, the “Crop Response, Rice Nato, 1 cm” value ([6]; 0.125 kg/ha) was 3 and the “Crop Response, Rice Nato, 2 cm” value ([6]; 0.125 kg/ha) was 1. For the same compound, the “Crop Response, Rice Nato, T” value ([6]; 0.125 kg/ha) was 0, the “Crop Response, Rice Nato, 1 cm” value ([6]; 0.25 kg/ha) was 6 and the “Crop Response, Rice Nato, 2 cm” value ([6]; 0.25 kg/ha) was 2. For the same compound, the “Crop Response, Rice Nato, T” value ([6]; 0.25 kg/ha) was 0, the “% Control, Pigweed” value ([7]; 0.125 kg/ha) was 90% and the “% Control, Pigweed” value ([7]; 0.25 kg/ha) was 98%. For the same compound, the “% Control, Pigweed” value ([7]; 0.50 kg/ha) was 95%, the “% Control, Pigweed” value ([7]; 1.00 kg/ha) was 100% and the “% Control, Foxtails” value ([8]; 0.5 kg/ha) was 70%. For the same compound, the “% Control, Foxtails” value ([8]; 1.0 kg/ha) was 90%, the “% Control, Foxtails” value ([8]; 2.0 kg/ha) was 94% and the “% Control, Foxtails” value ([8]; 4.0 kg/ha) was > 99%. For the same compound, the “% Control, Ragweed” value ([9]; 0.125 kg/ha) was 90%, the “% Control, Ragweed” value ([9]; 0.25 kg/ha) was 99% and the “% Control, Ragweed” value ([9]; 0.50 kg/ha) was 99%. For the same compound, the “% Control, Ragweed” value ([9]; 1.00 kg/ha) was 100%, the “Crop Response, Soybeans” value ([10]; 0.125 kg/ha) was 0 and the “Crop Response, Soybeans” value ([10]; 0.25 kg/ha) was 1.5. The “Crop Response, Soybeans” value ([10]; 0.50 kg/ha) was 3, the “Crop Response, Soybeans” value ([10]; 1.00 kg/ha) was 7.5 and the “Crop Response, Peanuts” value ([11]; 0.125 kg/ha) was 0. The “Crop Response, Peanuts” value ([11]; 0.25 kg/ha) was 0, the “Crop Response, Peanuts” value ([11]; 0.50 kg/ha) was 2 and the “Crop Response, Peanuts” value ([11]; 1.00 kg/ha) was 3.5. The “control of crabgrass, foxtails and barnyardgrass, in words” value ([12]; compared to Treatment II) was “outstanding when compared to Treatment II” and the “% control results, in words” value ([12]; eight naturally emerging weeds, versus Treatment II) was “clearly superior to Treatment II”.
`O=C1C2=C(CCCC2)C(=O)N1c1ccc(Cl)cc1` [Treatment II, 2-(4-chlorophenyl)-4,5,6,7-tetrahydro-2H-isoindole-1,3-dione] was tested, and the “% Control, Lambsquarters” value ([1]; 0.5 kg/ha) was 70%, the “% Control, Lambsquarters” value ([1]; 1.0 kg/ha) was 80% and the “% Control, Lambsquarters” value ([1]; 2.0 kg/ha) was 99%. For the same compound, the “% Control, Lambsquarters” value ([1]; 4.0 kg/ha) was 99%, the “% Control, Flower-of-an-Hour” value ([3]; 0.25 kg/ha) was 98% and the “% Control, Flower-of-an-Hour” value ([3]; 0.50 kg/ha) was 100%. The “% Control, Flower-of-an-Hour” value ([3]; 1.0 kg/ha) was 100%, the “% Control, Flower-of-an-Hour” value ([3]; 2.0 kg/ha) was 100% and the “% Control, Purslane” value ([4]; 0.25 kg/ha) was 100%. The “% Control, Purslane” value ([4]; 0.50 kg/ha) was 100%, the “% Control, Purslane” value ([4]; 1.0 kg/ha) was 100% and the “% Control, Purslane” value ([4]; 2.0 kg/ha) was 100%. For the same compound, the “% Control, Crabgrass” value ([5]; 0.5 kg/ha) was 0%, the “% Control, Crabgrass” value ([5]; 1.0 kg/ha) was 20% and the “% Control, Crabgrass” value ([5]; 2.0 kg/ha) was 40%. The “% Control, Crabgrass” value ([5]; 4.0 kg/ha) was 60%, the “Crop Response, Rice Nato, 1 cm” value ([6]; 0.25 kg/ha) was 5 and the “Crop Response, Rice Nato, 2 cm” value ([6]; 0.25 kg/ha) was 0. For the same compound, the “Crop Response, Rice Nato, T” value ([6]; 0.25 kg/ha) was 1, the “Crop Response, Rice Nato, 1 cm” value ([6]; 0.50 kg/ha) was 8 and the “Crop Response, Rice Nato, 2 cm” value ([6]; 0.50 kg/ha) was 1. For the same compound, the “Crop Response, Rice Nato, T” value ([6]; 0.50 kg/ha) was 1, the “Crop Response, Rice Nato, 1 cm” value ([6]; 1.0 kg/ha) was 9 and the “Crop Response, Rice Nato, 2 cm” value ([6]; 1.0 kg/ha) was 4. For the same compound, the “Crop Response, Rice Nato, T” value ([6]; 1.0 kg/ha) was 1, the “Crop Response, Rice Nato, 1 cm” value ([6]; 2.0 kg/ha) was 9 and the “Crop Response, Rice Nato, 2 cm” value ([6]; 2.0 kg/ha) was 6. For the same compound, the “Crop Response, Rice Nato, T” value ([6]; 2.0 kg/ha) was 2, the “% Control, Foxtails” value ([8]; 0.5 kg/ha) was 0% and the “% Control, Foxtails” value ([8]; 1.0 kg/ha) was 20%. The “% Control, Foxtails” value ([8]; 2.0 kg/ha) was 40% and the “% Control, Foxtails” value ([8]; 4.0 kg/ha) was 40%.
